Laboratory results: patent publication US4999424A, “GAR transformylase inhibitor” (The Pennsylvania State University, priority 1988, dated 1991)

Key:
GAR TFase (avian) = GAR TFase (avian) (Gallus gallus, UniProt P21872); test: Avian GAR TFase inhibition; assay type: biochemical; conditions: for Mode of inhibition: avian GAR TFase
Protocol: (§1) All assays were carried out by following the increase of 5,8-dideazafolate absorbence at 295 nm in buffered medium at 26° C. To initiate the reaction, enzyme (1 nM final concentration) was added to a mixture of saturating substrates and variable amounts of inhibitor. A characteristic family of curves was obtained, showing slow, tight-binding inhibition. See, Morrison, Trends Biochem. Sc., 7, 102 (1982) and Morrison, et al., Adv. Enzymology, Relat. Areas Mol. Biol., 57, 201-301 (1987).
(§2) The specificity of beta-TGDDF for GAR TFase from species other than E. coli was assayed in a general manner by measuring the activity of GAR TFase at a concentration of 1 nM from avian, HeLa, and L121? sources in the presence of 20 nM beta-TGDDF.
(§3) Table II illustrates the specificity of beta-TGDDF for GAR TFase in comparison with other reduced-folate utilizing enzymes. This test, was conducted using the same [I]/[E]ratios as stated previously.

GAR TFase (HeLa O) = target: T1, GAR TFase (HeLa O) (Homo sapiens, UniProt P22102); test: HeLa O GAR TFase inhibition; assay type: biochemical; conditions: for Mode of inhibition: HeLa O GAR TFase
T1 construct: GAR TFase activity is the C-terminal domain of trifunctional GART
T1 sequence (P22102 2-1010): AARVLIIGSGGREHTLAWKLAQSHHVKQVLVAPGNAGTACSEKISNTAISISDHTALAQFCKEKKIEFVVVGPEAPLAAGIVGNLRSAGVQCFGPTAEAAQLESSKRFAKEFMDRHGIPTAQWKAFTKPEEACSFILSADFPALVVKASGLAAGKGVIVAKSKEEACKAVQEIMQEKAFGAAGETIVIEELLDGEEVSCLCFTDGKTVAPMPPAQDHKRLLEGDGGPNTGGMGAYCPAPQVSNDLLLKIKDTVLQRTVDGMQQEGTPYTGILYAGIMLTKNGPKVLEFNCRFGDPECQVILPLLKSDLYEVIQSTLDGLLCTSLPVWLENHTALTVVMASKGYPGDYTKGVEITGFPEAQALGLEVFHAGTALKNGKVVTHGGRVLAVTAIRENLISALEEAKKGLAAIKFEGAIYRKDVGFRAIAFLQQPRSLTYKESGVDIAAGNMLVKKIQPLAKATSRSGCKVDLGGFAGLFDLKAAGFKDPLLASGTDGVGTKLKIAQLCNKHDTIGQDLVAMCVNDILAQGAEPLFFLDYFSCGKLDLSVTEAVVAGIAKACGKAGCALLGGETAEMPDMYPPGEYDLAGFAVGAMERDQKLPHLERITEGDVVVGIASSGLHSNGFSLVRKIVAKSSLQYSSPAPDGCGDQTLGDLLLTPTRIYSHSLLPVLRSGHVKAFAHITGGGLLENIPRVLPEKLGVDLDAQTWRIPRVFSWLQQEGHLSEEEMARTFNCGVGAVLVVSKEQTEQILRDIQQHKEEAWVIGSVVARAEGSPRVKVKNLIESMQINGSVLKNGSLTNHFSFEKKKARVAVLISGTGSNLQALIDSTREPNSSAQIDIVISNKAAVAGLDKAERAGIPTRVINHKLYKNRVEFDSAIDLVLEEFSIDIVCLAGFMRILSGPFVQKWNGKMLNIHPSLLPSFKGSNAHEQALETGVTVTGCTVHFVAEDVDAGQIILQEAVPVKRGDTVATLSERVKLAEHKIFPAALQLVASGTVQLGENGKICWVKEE
Protocol: as §1, §2, §3
E. coli GAR TFase was prepared and purified as described below. L1210 and HeLa GAR TFase were purified according to published procedures. AICAR TFase was prepared according to published procedures.

Sequence of GAR TFase (avian) (P21872 whole entry): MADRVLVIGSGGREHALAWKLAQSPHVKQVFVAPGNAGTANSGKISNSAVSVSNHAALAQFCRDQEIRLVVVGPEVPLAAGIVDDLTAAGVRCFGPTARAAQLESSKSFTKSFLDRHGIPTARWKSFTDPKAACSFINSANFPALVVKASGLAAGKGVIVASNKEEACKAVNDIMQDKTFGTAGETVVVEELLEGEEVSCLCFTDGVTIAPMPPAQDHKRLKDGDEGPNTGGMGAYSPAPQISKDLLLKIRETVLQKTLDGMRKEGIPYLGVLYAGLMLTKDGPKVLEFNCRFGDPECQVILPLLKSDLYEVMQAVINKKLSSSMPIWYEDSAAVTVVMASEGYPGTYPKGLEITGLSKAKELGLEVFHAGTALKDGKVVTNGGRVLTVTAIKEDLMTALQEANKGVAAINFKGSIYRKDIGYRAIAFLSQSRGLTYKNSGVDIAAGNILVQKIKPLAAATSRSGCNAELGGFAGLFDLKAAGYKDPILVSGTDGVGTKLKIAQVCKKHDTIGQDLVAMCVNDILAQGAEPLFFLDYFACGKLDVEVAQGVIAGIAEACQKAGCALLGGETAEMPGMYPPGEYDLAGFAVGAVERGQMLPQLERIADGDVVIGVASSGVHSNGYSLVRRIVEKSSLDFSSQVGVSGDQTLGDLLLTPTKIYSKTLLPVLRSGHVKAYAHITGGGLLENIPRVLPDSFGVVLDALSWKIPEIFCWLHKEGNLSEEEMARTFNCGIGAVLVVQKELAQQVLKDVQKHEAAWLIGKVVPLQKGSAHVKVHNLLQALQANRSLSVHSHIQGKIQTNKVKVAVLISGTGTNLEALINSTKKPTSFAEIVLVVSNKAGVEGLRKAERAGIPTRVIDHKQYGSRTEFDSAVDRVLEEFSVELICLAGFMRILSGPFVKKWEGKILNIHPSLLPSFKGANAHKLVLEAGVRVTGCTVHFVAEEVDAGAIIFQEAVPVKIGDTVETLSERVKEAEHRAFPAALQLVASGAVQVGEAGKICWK

Which results are given for `Nc1nc2ccc(CN(C(=O)CSCC(=O)N[C@@H]3O[C@H](COP(=O)(O)O)[C@@H](O)[C@H]3O)c3ccc(C(=O)N[C@@H](CCC(=O)O)C(=O)O)cc3)cc2c(=O)[nH]1` [beta-TGDDF, N^10-[5'-phosphoribosyl-1'-β-amino-carbonylmethyl-1-thioacetyl]-5,8-dideazafolate]?
Extent of inhibition (GAR TFase (avian); 20 nM beta-TGDDF, 1 nM enzyme): inhibited by roughly the same magnitude; Mode of inhibition (GAR TFase (avian)): inhibition of a slow, tight binding nature; Mode of inhibition (GAR TFase (avian); listed as Beta-TGDDF): slow, tight-binding inhibitor; Extent of inhibition (GAR TFase (HeLa O); 20 nM beta-TGDDF, 1 nM enzyme): inhibited by roughly the same magnitude; Mode of inhibition (GAR TFase (HeLa O)): inhibition of a slow, tight binding nature; Mode of inhibition (GAR TFase (HeLa O); listed as Beta-TGDDF): slow, tight-binding inhibitor
